In PubChem BioAssay AID1508612:

Test: passive permeability, PAMPA, ADME assay (AID 1508612)
Conditions: pH 7.4, 30.0 min, 50.0 µM

Compound	Papp
Cc1cccc(N2CCN(C(=O)c3ccc4c(c3)C(O)CCCCCN4C)CC2)c1 (stereo unspecified)	< 1 ×10⁻⁶ cm/s
C#CCNC(=O)c1nc(-c2ccc([S+](C)(=O)[O-])cc2)c2ccccn12	545 ×10⁻⁶ cm/s
Cc1nn2c(c1-c1ccccc1Oc1ccccc1)N(Cc1ccccc1O)CCC2	> 1000 ×10⁻⁶ cm/s
CCN(CC)CCCC(C)Nc1cc(/C=C/c2ccccc2Cl)nc2cc(Cl)ccc12 (stereo unspecified)	833 ×10⁻⁶ cm/s
COc1cccc(CNc2ccc(S(=O)(=O)Nc3ccccc3)cc2)c1O	> 1000 ×10⁻⁶ cm/s
O=C(Nc1cncc(Cc2ccccc2)c1)c1ccc(-c2cccc([N+](=O)[O-])c2)o1	> 1000 ×10⁻⁶ cm/s
Cc1[nH]c2ccccc2c1CN1CCN(c2ccccn2)CC1	> 1000 ×10⁻⁶ cm/s
Cc1cccc2nc(-c3ccccn3)c(Nc3ccc(F)cc3)n12	> 1000 ×10⁻⁶ cm/s
O=c1[nH]c(C2CCN(CC3CCCCC3)CC2)nn1Cc1ccccc1	< 1 ×10⁻⁶ cm/s
O=S(=O)(Nc1nccs1)c1ccc(NCc2cc(F)ccc2O)cc1	8.23 ×10⁻⁶ cm/s
Oc1ccc(CNc2ccccc2Br)c2cccnc12	< 1 ×10⁻⁶ cm/s
O=C1Nc2ccccc2/C1=C\c1ccc(O)c(Cl)c1	608 ×10⁻⁶ cm/s
CCC(=O)NC(c1cccs1)c1cc([N+](=O)[O-])c2cccnc2c1O (stereo unspecified)	36.3 ×10⁻⁶ cm/s
CN(C)c1cccc(-c2ncnc(N3CCC(C(N)=O)CC3)n2)c1	244 ×10⁻⁶ cm/s
C#C[C@]1(OC(C)=O)CC[C@H]2[C@@H]3CCC4=C/C(=N/O)CC[C@@H]4[C@H]3CC[C@@]21CC	858 ×10⁻⁶ cm/s
C[C@@]1(C(=O)Nc2ccc(F)nc2)CCCN1c1nc(Nc2cc(C3CC3)[nH]n2)c2cccn2n1	780 ×10⁻⁶ cm/s
CC(C)c1nc2oc3c(NCCN(C)C)ncnc3c2c2c1COC(C)(C)C2	> 1000 ×10⁻⁶ cm/s
Cc1cc(-c2nnc3n2CCCCC3)c(C)n1-c1ccc(Cl)c(Cl)c1	> 1000 ×10⁻⁶ cm/s

Compound	Papp
CCOC(=O)c1ccc(N2C(=O)c3[nH]nc(-c4ccc(OC)cc4)c3C2c2ccc(C)cc2)cc1 (stereo unspecified)	17.7 ×10⁻⁶ cm/s
CCc1cccc(NC(=O)C(Cc2ccccc2)NS(=O)(=O)c2cccs2)c1 (stereo unspecified)	887 ×10⁻⁶ cm/s
CN1C(=O)CN=C(c2ccccc2Cl)c2cc(Cl)ccc21	> 1000 ×10⁻⁶ cm/s
COc1cccc(C(=O)Nc2ccc3oc(-c4ccc5ccccc5c4)nc3c2)c1	533 ×10⁻⁶ cm/s
COc1cccc(C(=O)Nc2nc(-c3nnn(-c4ccccc4C(F)(F)F)c3C)ns2)c1	383 ×10⁻⁶ cm/s
Cc1nc(Nc2n[nH]c3c2CN(C(=O)N[C@H](CN(C)C)c2ccccc2)C3(C)C)c2sccc2n1	2.31 ×10⁻⁶ cm/s
NC(=O)C1CCN(c2nc(-c3ccccc3[N+](=O)[O-])cs2)CC1	109 ×10⁻⁶ cm/s
O=C(Nc1cccc(F)c1)c1cc(-c2ccc[nH]2)n[nH]1	136 ×10⁻⁶ cm/s
N#Cc1nc(-c2cccc3ccccc23)oc1NC1COC1	> 1000 ×10⁻⁶ cm/s
O=C(c1cnc(N2CCCCC2)c2ccccc12)N1CCN(c2ccc(Cl)cc2)CC1	> 1000 ×10⁻⁶ cm/s
CC(C)CNc1ncnc2onc(-c3ccc(Cl)cc3)c12	> 1000 ×10⁻⁶ cm/s
COc1ccc(S(=O)(=O)N2CCCCCC2)cc1NC(=O)Cc1n[nH]c(=O)c2ccccc12	< 1 ×10⁻⁶ cm/s
COc1ccc(C[C@@H]2C(=O)N[C@H](C)C(=O)N(C)[C@@H]3C(=O)N(C)[C@@H](Cc4ccc(O)c(c4)Oc4ccc(cc4)[C@H]3O)C(=O)N[C@@H](C)C(=O)N[C@H](C)C(=O)N2C)cc1	4.5 ×10⁻⁶ cm/s
Cc1cccc(NCc2ccc(O)c3ncccc23)c1	< 1 ×10⁻⁶ cm/s
Cc1ccc(-c2cc(C(=O)Nc3ccc(S(=O)(=O)N(C)Cc4nccs4)cc3)c3ccccc3n2)cc1C	< 1 ×10⁻⁶ cm/s
O=C(c1ccc(-c2ncc3cnc(-c4ccccc4)cn23)cc1)N1CCS(=O)(=O)CC1	45.6 ×10⁻⁶ cm/s
Nc1c(-c2ccncc2)cc[nH]c1=O	3.1 ×10⁻⁶ cm/s
COc1ccc(-c2csc(NC(=O)c3ccncc3NS(=O)(=O)c3ccc(C)cc3)n2)cc1	> 1000 ×10⁻⁶ cm/s
